Results as given in article PMC11594534, “Antimicrobial Peptide Pro10-1D Exhibits Anti-Allergic Activity: A Promising Therapeutic Candidate” (International Journal of Molecular Sciences, 2024).
Square brackets hold non-standard residues; d marks the D form. Peptide text beside a SMILES is read from it.

How the values were obtained:
[1] = system: RBL-2H3 cells; assay: Cell viability (CCK-8), RBL-2H3; type: cell-based, rat; conditions: RBL-2H3, 4 h, CCK-8, absorbance 450 nm, up to highest experimental concentration
Protocol: (§1) Figure 1 Pro10-1D inhibits IgE–Ag-induced degranulation in MCs. (A) RBL-2H3 cells and BMMCs were first sensitized with DNP-specific IgE and then treated with Pro10-1D or PP2 for 30 min, followed by the stimulation with DNP-HSA for 15 min. (B) IgE-sensitized RBL-2H3 cells were incubated with or without Pro10-1D for 30 min and then washed three times, followed by the stimulation with the antigen for 15 min. (C) The effects of Pro10-1D on cell viability were evaluated by incubating both RBL-2H3 cells and BMMCs with Pro10-1D for 4 h and measuring the absorbance at 450 nm using the CCK-8 kit. (A,B) The extent of degranulation from the MCs was determined by measuring the ratio of β-hexosaminidase activity released outside the cells to the total β-hexosaminidase activity. The data are presented as the mean ± SEM from three independent experiments, each performed in triplicate. Statistical significance is indicated by an asterisk; * p < 0.05, ** p < 0.01. PP2 is a general Src family kinase inhibitor.
(§2) RBL-2H3 cells (2.0 × 10^4 cells/well) were seeded in 96-well plates and incubated for 12 h, after which they were treated with Pro10-1D for 4 h. […] Cell viability was assessed using the Cell Counting Kit-8 (CCK-8) (Dojindo Laboratories, Kumamoto, Japan), following the manufacturer’s protocol. Absorbance was measured at 450 nm to determine cell viability.

[2] = target: T1, Lyn (Mus musculus, UniProt P25911); assay: KinaseProfiler radiometric kinase assay, Lyn; type: biochemical; conditions: Km concentration for ATP, [γ-33P]-ATP, Poly (Glu, Tyr) 4:1, 0.1 mg/mL, Tris pH 7.5, 40 min, room temperature, two independent experiments
T1 construct: purchased Eurofins (KinaseProfiler service, Celle-Lévescault, France)
Protocol: (§3) Figure 5 Pro10-1D suppresses the activity of Lyn and Fyn kinases in vitro. (A) BMMCs (3.0 × 10^5 cells/well) were pre-incubated with Pro10-1D or PP2 for 30 min and then stimulated with 1 μM ionomycin or 300 nM thapsigargin for 15 min. (B,C) KinaseProfiler radiometric protein kinase assays were performed with Lyn and Fyn kinase. The protocols used for the kinase assay are detailed in the Section 4 “Materials and Methods”. (A–C) The data are presented as the mean ± SEM from two independent experiments. Statistical significance is indicated by an asterisk; ** p < 0.01.
(§4) A radiometric Lyn, Fyn kinase assay was conducted at Eurofins (Celle-Lévescault, France) using KinaseProfiler^TM. The assays were carried out at the Km concentration for ATP in dose response for each kinase. Briefly, the Lyn (mouse) assay was incubated using a mixture of 50 mM Tris pH 7.5, 0.1 mM EGTA, 0.1 mM Na3VO4, 0.1% β-Mercaptoethanol, 0.1 mg/mL Poly (Glu, Tyr) 4:1, 10 mM Magnesium acetate, and [γ^33P]-ATP. The Fyn (human) assay was incubated with a mixture of 50 mM Tris pH 7.5, 0.1 mM EGTA, 0.1 mM Na3VO4, 250 µM KVEKIGEGTYGVVYK (Cdc2 peptide), 10 mM Magnesium acetate, and [γ^33P]-ATP. The activity of Lyn and Fyn was initiated by the addition of the Mg/ATP mix, and the reactions were incubated for 40 min at room temperature. The reaction was halted by adding 0.5% phosphoric acid. […]

[3] = system: rat basophilic leukemia (RBL)-2H3 cells; assay: Antigen-induced MC degranulation, β-hexosaminidase assay, RBL-2H3; type: cell-based; conditions: RBL-2H3 (2.0 × 10^5 cells/well), DNP-specific IgE 20 ng/mL overnight, Pro10-1D 30 min, then DNP-HSA 25 ng/mL 15 min, 37 °C, Siraganian buffer pH 7.2, absorbance 405 nm, three independent experiments in triplicate, read-out: IC50, inhibition of antigen-induced degranulation
Protocol: as §1, with “Statistical significance is indicated by an asterisk; * p < 0.05, ** p < 0.01. PP2 is a general Src family kinase inhibitor.” left out
(§5) RBL-2H3 cells were obtained from the American Type Culture Collection (Manassas, VA, USA) and cultured in a complete minimal essential medium (MEM) supplemented with L-glutamine […], streptomycin (100 μg/mL), and 15% fetal bovine serum at 37 °C in a CO2-enriched environment. […] After 4 to 5 weeks of culture, the purity of BMMCs was assessed using flow cytometric analysis, focusing on FcεRIα and c-Kit expression as markers of mast cell maturation. […]

[4] = system: mouse macrophage RAW264.7 cells; conditions: cited from earlier work
Excerpt: In this study, we utilized Pro10-1D, a 10-meric peptide developed previously by adding a D-arginine residue at the N terminal of Pro9-3D, an enantiomeric form of Pro9-3 [17].

[5] = system: BMMCs; assay: Cell viability (CCK-8), BMMCs; type: cell-based, mouse; conditions: 4 h, CCK-8, absorbance 450 nm, up to highest experimental concentration
Protocol: as §1, §2

[6] = system: bone marrow-derived mast cells (BMMC cells); assay: Antigen-induced MC degranulation, β-hexosaminidase assay, BMMCs; type: cell-based, mouse; conditions: BMMCs (3.0 × 10^5 cells/well), DNP-specific IgE 100 ng/mL 4 h, Pro10-1D 30 min, then DNP-HSA 50 ng/mL 15 min, 37 °C, Tyrode buffer pH 7.4, absorbance 405 nm, three independent experiments in triplicate, read-out: IC50, inhibition of antigen-induced degranulation
Protocol: as §1, with “Statistical significance is indicated by an asterisk; * p < 0.05, ** p < 0.01. PP2 is a general Src family kinase inhibitor.” left out
as §5

[7] = target: T2, Fyn (Homo sapiens, UniProt P06241); assay: KinaseProfiler radiometric kinase assay, Fyn; type: biochemical; conditions: Km concentration for ATP, [γ-33P]-ATP, 250 µM Cdc2 peptide, Tris pH 7.5, 40 min, room temperature, two independent experiments
T2 construct: purchased Eurofins (KinaseProfiler service, Celle-Lévescault, France)
Protocol: as §3, §4

[8] = system: E. coli-induced sepsis; conditions: cited from earlier work
Excerpt: (§6) AMPs are recognized for their antibacterial activities as well as their immunomodulatory activities. The mechanism for their immunomodulatory activity includes the regulation of inflammatory or anti-inflammatory cytokines and the induction of chemoattractants. […] LL-37, produced by neutrophils, neutralize ...

[9] = system: TLR4-NFκB signaling pathway, LPS-TLR4/MD-2; conditions: competitive interference with the LPS-TLR4/MD-2 interaction; cited from earlier work
Excerpt: as §6

[10] = system: T cells, B cells, and pDC cells; conditions: cited from earlier work
Excerpt: as §6

[11] = system: TLR ligands; conditions: cited from earlier work
Excerpt: as §6

[12] = system: inflammatory cell influx into bronchoalveolar lavage fluid; conditions: allergic asthma, intranasal application; cited from earlier work
Excerpt: AMPs are small, naturally occurring antimicrobial peptides. In addition to their antimicrobial function, AMPs also play a role in regulating the host’s innate immune system. AMPs typically exert effects that inhibit the growth or induce the death of bacteria, fungi, and parasites. Unlike conventional antibiotics, most AMPs employ a distinct mode of action for their antibacterial activity, targeting the pathogen’s membrane. These unique mechanisms make AMPs promising candidates for the development of next-generation antibiotics. By August 2020, the antimicrobial peptide database c ...

[13] = system: BMMCs; assay: Thapsigargin-induced degranulation of BMMCs; type: cell-based, mouse; conditions: BMMCs without IgE sensitization, 30 min pre-incubation, 300 nM thapsigargin 15 min; two independent experiments
Protocol: as §3
(§7) RBL-2H3 cells (2.0 × 10^5 cells/well) were sensitized overnight with 20 ng/mL DNP-specific IgE in the culture medium. BMMCs (3.0 × 10^5 cells/well) were sensitized with 100 ng/mL DNP-specific IgE for 4 h in the culture medium. […] The reaction was stopped by the addition of 250 μL of a 0.1 M carbonate buffer, and absorbance was measured at 405 nm. The degranulation values were calculated as the ratio of β-hexosaminidase activity secreted into the supernatant to the total β-hexosaminidase activity from both the supernatant and cell extract.

[14] = system: BMMCs; assay: Ionomycin-induced degranulation of BMMCs; type: cell-based, mouse; conditions: BMMCs without IgE sensitization, 30 min pre-incubation, 1 μM ionomycin 15 min; two independent experiments
Protocol: as §3, §7

[15] = system: NF-κB and p38 MAPK in MCs; conditions: IgE-independent stimulation; cited from earlier work
Excerpt: MCs play a pivotal role in the late-phase reaction following early-phase activation triggered by Ag stimulation. During the late-phase response, MCs produce and secrete a range of cytokines and chemokines, which further intensify the inflammatory cascade initiated in the early response, leading to the recruitment and activation of various immune cells. The late-phase response of MC activation is instrumental in sustaining and exacerbating allergic symptoms, such as bronchoconstriction and edema. Suppressing MC-mediated late-phase responses, therefore, can help prevent the ...

T1 sequence (P25911 whole entry): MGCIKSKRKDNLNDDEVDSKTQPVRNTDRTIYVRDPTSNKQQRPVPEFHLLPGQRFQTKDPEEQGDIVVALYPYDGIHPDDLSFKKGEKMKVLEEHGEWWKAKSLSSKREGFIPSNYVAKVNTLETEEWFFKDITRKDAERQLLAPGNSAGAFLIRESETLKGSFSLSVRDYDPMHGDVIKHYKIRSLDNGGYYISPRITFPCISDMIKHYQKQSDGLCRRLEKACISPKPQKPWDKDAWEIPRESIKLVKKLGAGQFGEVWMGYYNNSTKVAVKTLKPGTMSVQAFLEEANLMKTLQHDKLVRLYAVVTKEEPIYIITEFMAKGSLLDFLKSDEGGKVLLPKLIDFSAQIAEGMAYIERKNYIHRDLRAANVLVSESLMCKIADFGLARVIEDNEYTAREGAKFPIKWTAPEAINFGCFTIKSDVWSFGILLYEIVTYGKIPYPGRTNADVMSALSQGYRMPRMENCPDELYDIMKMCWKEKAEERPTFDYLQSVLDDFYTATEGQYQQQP
T2 sequence (P06241 whole entry): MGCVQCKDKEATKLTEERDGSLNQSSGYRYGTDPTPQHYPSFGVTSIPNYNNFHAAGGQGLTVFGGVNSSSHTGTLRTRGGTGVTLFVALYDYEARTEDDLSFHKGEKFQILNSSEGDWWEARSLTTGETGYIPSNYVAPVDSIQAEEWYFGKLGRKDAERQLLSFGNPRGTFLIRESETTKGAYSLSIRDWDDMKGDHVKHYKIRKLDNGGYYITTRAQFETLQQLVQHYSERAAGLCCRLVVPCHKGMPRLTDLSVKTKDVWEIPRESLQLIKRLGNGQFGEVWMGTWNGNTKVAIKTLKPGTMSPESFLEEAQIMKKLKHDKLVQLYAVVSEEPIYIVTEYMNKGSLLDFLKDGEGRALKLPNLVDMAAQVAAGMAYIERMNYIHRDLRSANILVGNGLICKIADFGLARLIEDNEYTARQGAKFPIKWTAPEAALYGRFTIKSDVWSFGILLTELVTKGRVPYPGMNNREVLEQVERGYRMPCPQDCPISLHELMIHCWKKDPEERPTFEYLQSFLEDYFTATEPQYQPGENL

CC[C@@H](C)[C@@H](NC(=O)[C@@H](C)NC(=O)[C@@H](CC(C)C)NC(=O)[C@@H](Cc1c[nH]c2ccccc12)NC(=O)[C@@H](CC(C)C)NC(=O)[C@@H](CCCNC(=N)N)NC(=O)[C@H](N)CCCNC(=N)N)C(=O)N[C@H](Cc1c[nH]c2ccccc12)C(=O)N[C@H](CCCNC(=N)N)C(=O)N[C@H](CCCNC(=N)N)C(N)=O [Pro10-1D] (H-[dR][dR][dL][dW][dL][dA][dI][dW][dR][dR]-NH2)
cellular toxicity / cell viability [1]: did not exhibit any signs of cellular toxicity, even at the highest experimental concentration | IC50 [2]: ~1.5 µM | IC50 [3]: ~11.6 µM | toxicity to RAW264.7 cells [4]: non-toxic | cellular toxicity / cell viability [5]: did not exhibit any signs of cellular toxicity, even at the highest experimental concentration | IC50 [6]: ~2.7 µM | IC50 [7]: ~22.6 µM

papiliocin
effect on E. coli-induced sepsis [8]: alleviates the impact of E. coli-induced sepsis | inhibition of TLR4-NFκB signaling pathway [9]: inhibiting the TLR4-NFκB signaling pathway

LL-37
IL-10 expression [10]: induces IL-10 expression | effect on pro-inflammatory activity of TLR ligands [11]: neutralizes the pro-inflammatory activity of TLR ligands

hBD2: human β-defensin-2 (GIGDPVTCLKSGAICHPVFCPRRYKQIGTCGLPGTKCCKKP; UniProt O15263 24-64, looked up)
inflammatory cell influx into bronchoalveolar lavage fluid [12]: reduce inflammatory cell influx into bronchoalveolar lavage fluid

CC(C)(C)n1nc(-c2ccc(Cl)cc2)c2c(N)ncnc21 [PP2, 4-amino-5-(4-chlorophenyl)-7-(dimethylethyl)pyrazolo[3,4-d]pyrimidine]
inhibition of thapsigargin-induced degranulation [13]: much weaker inhibitory effect on thapsigargin or ionomycin-induced degranulation compared to its inhibitory effect on antigen-induced degranulation | inhibition of ionomycin-induced degranulation [14]: much weaker inhibitory effect on thapsigargin or ionomycin-induced degranulation compared to its inhibitory effect on antigen-induced degranulation

O=C(CO)NCCCOc1cccc(CN2CCCCC2)c1 [roxatidine]
release of pro-inflammatory cytokines; phosphorylation of NF-κB and p38 MAPK [15]: attenuate the release of pro-inflammatory cytokines by inhibiting the phosphorylation of NF-κB and p38 MAPK
